From patent US20250282799A1, “SUBSTITUTED PYRIDO[4,3-d]PYRIMIDINES AS KRAS MODULATORS” (Alterome Therapeutics, Inc., priority 2023, published 2025)

What follows are molecules tested on KRAS G12V dependent lung adenocarcinoma cell line, NCI-H441 (assay: Cellular pERK (Thr202/Tyr204) FRET/HTRF assay). Settings: Homo sapiens, NCI-H441, pERK HTRF, NCI-H441 cells (KRAS G12V).
Format: cell-based
Procedure, shortened: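 Read-out is a wash-free FRET sandwich immunoassay for endogenous ERK1/2 phosphorylated on Thr202/Tyr204. Signal was measured in NCI-H441 lung adenocarcinoma cells after 1 hr compound exposure at 37 °C. IC50 values come from fitted concentration-response curves.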

Compound	IC50 [nM]
[2H]C([2H])(Oc1nc(N2CCOC[C@H]3[C@H](F)[C@H]32)c2cnc(-c3cc(N)cc4cc(F)c(F)c(C#C)c34)c(F)c2n1)[C@@]12CCCN1C[C@H](F)C2 [Example 28, 5-Ethynyl-6,7-difluoro-4-(8-fluoro-4-((1S,7S,8S)-8-fluoro-5-oxa-2-azabicyclo[5.1.0]octan-2-yl)-2-(((2R,7aS)-2-fluorotetrahydro-1H-pyrrolizin-7a(5H)-yl)methoxy-d2)pyrido[4,3-d]pyrimidin-7-yl)naphthalen-2-amine]	< 50
[2H]C([2H])(Oc1nc(N2CCCC[C@H]3[C@H](F)[C@H]32)c2cnc(-c3cc(N)cc4ccc(F)c(C#C)c34)c(F)c2n1)[C@@]12CCCN1C[C@H](F)C2 [Example 82, 5-Ethynyl-6-fluoro-4-(8-fluoro-4-((1S,7R,8S)-8-fluoro-2-azabicyclo[5.1.0]octan-2-yl)-2-(((2R,7aS)-2-fluorotetrahydro-1H-pyrrolizin-7a(5H)-yl)methoxy-d2)pyrido[4,3-d]pyrimidin-7-yl)naphthalen-2-amine]	< 50
[2H]C([2H])(Oc1nc(N2CCCC[C@H]3[C@H](F)[C@H]32)c2cnc(-c3cc(N)cc4cc(F)c(F)c(C#C)c34)c(F)c2n1)[C@@]12CCCN1C[C@H](F)C2 [Example 16, 5-Ethynyl-6,7-difluoro-4-(8-fluoro-4-((1S,7R,8S)-8-fluoro-2-azabicyclo[5.1.0]octan-2-yl)-2-(((2R,7aS)-2-fluorotetrahydro-1H-pyrrolizin-7a(5H)-yl)methoxy-d2)pyrido[4,3-d]pyrimidin-7-yl)naphthalen-2-amine]	< 50
[2H]C([2H])(Oc1nc(N2CCOC[C@H]3[C@H](F)[C@H]32)c2cnc(-c3cc(N)cc4ccc(F)c(C#C)c34)c(F)c2n1)[C@@]12CCCN1C[C@H](F)C2 [Example 87, 5-Ethynyl-6-fluoro-4-(8-fluoro-4-((1S,7S,8S)-8-fluoro-5-oxa-2-azabicyclo[5.1.0]octan-2-yl)-2-(((2R,7aS)-2-fluorotetrahydro-1H-pyrrolizin-7a(5H)-yl)methoxy-d2)pyrido[4,3-d]pyrimidin-7-yl)naphthalen-2-amine]	< 50
